Assay results as given in US20230234942A1, “COMPOUNDS FOR TREATING HUNTINGTON'S DISEASE” (PTC Therapeutics, Inc., priority 2020, published 2023).

Test system: Endogenous Huntingtin Protein
Assay: Endogenous Huntingtin Protein Assay (ELISA-based MSD electrochemiluminescence)
Type: cell-based
Conditions: Table 2; MSD plates coated with MW1 (expanded polyglutamine) or MAB2166 capture antibody; "inactive" = result above the detection limit of the assay
In short: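 Endogenous huntingtin measured on MSD plates coated with MW1 (polyglutamine-expanded) or MAB2166 capture antibody; lysates bound overnight at 4 °C. Signal developed with #56565 rabbit monoclonal and goat anti-rabbit SULFO-TAG (0.25 µg/mL, 1 h RT each), electrochemiluminescence read on SI 6000.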

| Structure (SMILES) | IC50 [µM] | IC50 (nM) |
| --- | --- | --- |
| COc1nnc(-c2ccc(-c3cnc(N4CCN[C@@H](C(C)C)C4)nn3)c(O)c2)s1 [Cpd 204, 5-(5-methoxy-1,3,4-thiadiazol-2-yl)-2-{3-[(3S)-3-(propan-2-yl)piperazin-1-yl]-1,2,4-triazin-6-yl}phenol] | 0.163 |  |
| C[C@@H]1CN(c2ncc(-c3ccc(-c4cc(F)c5nn(C)cc5c4)cc3O)nn2)C[C@H](C)N1 [Cpd 79, 2-{3-[(3R,5S)-3,5-dimethylpiperazin-1-yl]-1,2,4-triazin-6-yl}-5-(7-fluoro-2-methyl-2H-indazol-5-yl)phenol] | 0.0052 |  |
| Cc1ccc2oc(-c3ccc(-c4cnc(N5C[C@@H](C)N[C@@H](C)C5)nn4)c(O)c3)cc2n1 [Cpd 120, 2-{3-[(3R,5S)-3,5-dimethylpiperazin-1-yl]-1,2,4-triazin-6-yl}-5-(5-methylfuro[3,2-b]pyridin-2-yl)phenol] |  | inactive |
| Cc1ccc(-c2ccc(-c3cnc(N4CCN[C@@H](C(C)C)C4)nn3)c(O)c2)cn1 [Cpd 160, 5-(6-methylpyridin-3-yl)-2-{3-[(3S)-3-(propan-2-yl)piperazin-1-yl]-1,2,4-triazin-6-yl]phenol] | 0.789 |  |
| CC[C@H]1CN(c2ncc(-c3ccc(-c4ccnc(OC)c4)cc3O)nn2)C[C@@H](C)N1 (single isomer, unassigned) [Cpd 266, 2-{3-[(3S,5R)-3-ethyl-5-methylpiperazin-1-yl]-1,2,4-triazin-6-yl}-5-(2-methoxypyridin-4-yl)phenol or 2-{3-[(3R,5S)-3-ethyl-5-methylpiperazin-1-yl]-1,2,4-triazin-6-yl}-5-(2-methoxypyridin-4-yl)phenol] | 0.0194 |  |
| CC(C)[C@H]1CN(c2ncc(-c3ccc(-c4cn[nH]c4F)cc3O)nn2)C[C@@H](C)N1 [Cpd 222, 5-(5-fluoro-1H-pyrazol-4-yl)-2-{3-[(3R,5S)-3-methyl-5-(propan-2-yl)piperazin-1-yl]-1,2,4-triazin-6-yl]phenol] | 0.0094 |  |
| Cc1cn2cc(-c3ccc(-c4cnc(N5CCN(C)[C@H](C)C5)nn4)c(O)c3)cc(F)c2n1 [Cpd 107, 2-{3-[(3R)-3,4-dimethylpiperazin-1-yl]-1,2,4-triazin-6-yl}-5-(8-fluoro-2-methylimidazo[1,2-a]pyridin-6-yl)phenol] | 0.0168 |  |
| CC(C)[C@H]1CN(c2ncc(-c3ccc(-c4ccc5nccn5n4)cc3O)nn2)CCN1 [Cpd 102, 5-(imidazo[1,2-b]pyridazin-6-yl)-2-{3-[(3S)-3-(propan-2-yl)piperazin-1-yl]-1,2,4-triazin-6-yl}phenol] | 0.0134 |  |
| CC(C)[C@H]1CN(c2ncc(-c3ccc(-c4cnc5n4CCC5)cc3O)nn2)CCN1 [Cpd 279, 5-(6,7-dihydro-5H-pyrrolo[1,2-a]imidazol-3-yl)-2-{3-[(3S)-3-(propan-2-yl)piperazin-1-yl]-1,2,4-triazin-6-yl}phenol] | 0.0052 |  |
| Cc1nc2c(C)nc(-c3ccc(-c4cnc(N5C[C@@H](C)N[C@@H](C)C5)nn4)c(O)c3)cn2n1 [Cpd 101, 2-{3-[(3R,5S)-3,5-dimethylpiperazin-1-yl]-1,2,4-triazin-6-yl}-5-(2,8-dimethyl[1,2,4]triazolo[1,5-a]pyrazin-6-yl)phenol] | 0.013 |  |
| Oc1cc(-c2cn[nH]c2)ccc1-c1cnc(N2CC3CCC(C2)N3)nn1 [Cpd 135, 2-[3-(3,8-diazabicyclo[3.2.1]octan-3-yl)-1,2,4-triazin-6-yl]-5-(1H-pyrazol-4-yl)phenol] | 0.185 |  |
| Cn1cc2cc(-c3ccc(-c4cnc(N5CCN6CCC[C@@H]6C5)nn4)c(O)c3)cc(F)c2n1 [Cpd 105, 5-(7-fluoro-2-methyl-2H-indazol-5-yl)-2-{3-[(8aR)-hexahydropyrrolo[1,2-a]pyrazin-2(1H)-yl]-1,2,4-triazin-6-yl}phenol] | 0.0153 |  |
| Cc1cn2cc(-c3ccc(-c4cnc(N5CCN[C@@H](C(C)C)C5)nn4)c(O)c3)cc(C(F)(F)F)c2n1 [Cpd 139, 5-[2-methyl-8-(trilluoromethyl)imidazo[1,2-a]pyridin-6-yl]-2-{3-[(3S)-3-(propan-2-yl)piperazin-1-yl]-1,2,4-triazin-6-yl}phenol] | 0.018 |  |
| CC(C)[C@H]1CN(c2ncc(-c3cc(F)c(-c4cn[nH]c4)cc3O)nn2)CCN1 [Cpd 158, 4-fluoro-2-{3-[(3S)-3-(propan-2-yl)piperazin-1-yl]-1,2,4-triazin-6-yl}-5-(1H-pyrazol-4-yl)phenol] | 0.0056 |  |
| CNc1ccc(-c2ccc(-c3cnc(N4CCN[C@@H](C5CC5)C4)nn3)c(O)c2)cc1 [Cpd 179, 4-{3-[(3S)-3-cyclopropylpiperazin-1-yl]-1,2,4-triazin-6-yl}-4‘-(methylamino)[1,1‘-biphenyl]-3-ol] | 0.113 |  |
| CC(C)[C@H]1CN(c2ncc(-c3ccc(-c4cnnn4C)cc3O)nn2)CCN1 [Cpd 261, 5-(1-methyl-1H-1,2,3-triazol-5-yl)-2-{3-[(3S)-3-(propan-2-yl)piperazin-1-yl]-1,2,4-triazin-6-yl}phenol] | 0.993 |  |

Next, values leading:

| IC50 [µM] | IC50 (nM) | Structure (SMILES) |
| --- | --- | --- |
| 0.0055 |  | Cc1cn2nc(-c3ccc(-c4cnc(N5CCN(C)CC5)nn4)c(O)c3)ccc2n1 [Cpd 82, 5-(2-methylimidazo[1,2-b]pyridazin-6-yl)-2-[3-(4-methylpiperazin-1-yl)-1,2,4-triazin-6-yl]phenol] |
| 0.131 |  | CC(C)[C@H]1CN(c2ncc(-c3ccc(-c4cnn5c4OCCC5)cc3O)nn2)CCN1 [Cpd 282, 5-(6,7-dihydro-5H-pyrazolo[5,1-b][1,3]oxazin-3-yl)-2-{3-[(3S)-3-(propan-2-yl)piperazin-1-yl]-1,2,4-triazin-6-yl}phenol] |
| 0.0054 |  | CC(C)[C@H]1CN(c2ncc(-c3ccc(-c4cc(F)c5nn(C)cc5c4)cc3O)nn2)CCN1 [Cpd 81, 5-(7-fluoro-2-methyl-2H-indazol-5-yl)-2-{3-[(3S)-3-(propan-2-yl)piperazin-1-yl]-1,2,4-triazin-6-yl}phenol] |
| 0.0109 |  | Cn1cc(-c2ccc(-c3cnc(N4CCN[C@@H](C5CC5)C4)nn3)c(O)c2)cn1 [Cpd 12, 2-{3-[(3S)-3-cyclopropylpiperazin-1-yl]-1,2,4-triazin-6-yl}-5-(1-methyl-1H-pyrazol-4-yl)phenol] |
| 0.004 |  | CC(C)C1CN(c2ncc(-c3ccc(-c4cc(F)c5nn(C)cc5c4)cc3O)nn2)CCN1 (stereo not shown) [Cpd 71, 5-(7-fluoro-2-methyl-2H-indazol-5-yl)-2-{3-[3-(propan-2-yl)piperazin-1-yl]-1,2,4-triazin-6-yl}phenol] |
| 0.0412 |  | Cc1cn2cc(-c3cnc(-c4cnc(N5CCN(C)CC5)nn4)c(O)c3)cc(F)c2n1 [Cpd 122, 5-(8-fluoro-2-methylimidazo[1,2-a]pyridin-6-yl)-2-[3-(4-methylpiperazin-1-yl)-1,2,4-triazin-6-yl]pyridin-3-ol] |
| 0.1 |  | Cc1cn2cc(-c3cnc(-c4cnc(N5CCN(C)CC5)nn4)c(O)c3)cc(C)c2n1 [Cpd 126, 5-(2,8-dimethylimidazo[1,2-a]pyridin-6-yl)-2-[3-(4-methylpiperazin-1-yl)-1,2,4-triazin-6-yl]pyridin-3-ol] |
| 0.341 |  | COc1cc(-c2ccc(-c3cnc(N4C[C@@H](C)N[C@@H](C(C)(C)C)C4)nn3)c(O)c2)ncn1 [Cpd 255, 2-{3-[(3S,5R)-3-tert-butyl-5-methylpiperazin-1-yl]-1,2,4-triazin-6-yl}-5-(6-methoxypyrimidin-4-yl)phenol] |
| 0.0043 |  | Cc1cn2nc(-c3ccc(-c4cnc(N5C[C@@H](C)N[C@@H](C)C5)nn4)c(O)c3)ccc2n1 [Cpd 75, 2-{3-[(3R,5S)-3,5-dimethylpiperazin-1-yl]-1,2,4-triazin-6-yl}-5-(2-methylimidazo[1,2-b]pyridazin-6-yl)phenol] |
